Converted amounts (≈) assume the structure as drawn.

From PMC3972818 (Nature medicine, 2014) come the findings set out here.

Assay [1] concerns M. tuberculosis ATCC 35837. Description: microbe, parasite or virus in culture. In kind it is cell-based. As to conditions: Mycobacterium tuberculosis, ATCC35837.
The next assay relates to M. tuberculosis H37Rv. The assay can be described thus: MIC, microbroth dilution. As to conditions: Mycobacterium tuberculosis. In kind it is cell-based. For orientation: Dilution methods test growth across graded concentrations, often in twofold steps.
Assay [2] concerns M. tuberculosis ATCC 35822. Format: cell-based, Mycobacterium tuberculosis.
Assay [3] has as its system M. tuberculosis ATCC 35820. Format: cell-based, Mycobacterium tuberculosis.
Assay [4] has as its system M. tuberculosis ATCC 35838. In kind it is cell-based, Mycobacterium tuberculosis.
The subject of assay [5] is M. tuberculosis H37Rv-HL-14. In kind it is cell-based, Mycobacterium tuberculosis.
The test system of assay [6] is M. tuberculosis H37Rv-HL-15. In kind it is cell-based, Mycobacterium tuberculosis.

On to `CC[C@@H](CO)NCCN[C@@H](CC)CO` [Ethambutol], for which the MIC in assay [1] is above 25 µg/mL.

Consider `CN[C@@H]1[C@H](O)[C@H](NC)[C@H]2O[C@@]3(O)C(=O)C[C@@H](C)O[C@H]3O[C@@H]2[C@H]1O` [Spectinomycin, spectinomycin], for which the MIC with M. tuberculosis H37Rv was 100 µg/mL (≈ 301 µM); in assay [2], 100 µg/mL (≈ 301 µM); in assay [3], 200 µg/mL (≈ 602 µM); in assay [4], 100 µg/mL (≈ 301 µM); in assay [1], 100 µg/mL (≈ 301 µM); in assay [5], above 200 µg/mL. In assay [6], this compound showed an MIC above 200 µg/mL.

For `[H]/N=C(/N)N[C@H]1[C@H](O)[C@@H](O)[C@H](O[C@@H]2O[C@@H](C)[C@](O)(C=O)[C@H]2O[C@@H]2O[C@@H](CO)[C@H](O)[C@@H](O)[C@@H]2NC)[C@@H](N/C(N)=N\[H])[C@@H]1O` [Streptomycin, streptomycin], the MIC with M. tuberculosis H37Rv was 1.6 µg/mL (≈ 2.75 µM); in assay [2], 1.6 µg/mL (≈ 2.75 µM); in assay [3], above 200 µg/mL; in assay [4], 1.6 µg/mL (≈ 2.75 µM); in assay [1], 1.6 µg/mL (≈ 2.75 µM); in assay [5] it was 1.6 µg/mL (≈ 2.75 µM). Besides, in assay [6], the MIC was 1.6 µg/mL (≈ 2.75 µM).
